# Test results from EP0555537B1, “Endothelin antagonists” (BANYU PHARMACEUTICAL CO., LTD., priority 1991, dated 1993).
# Numbered stars: 1 amine (or outer) side, 2 acyl side, 3 side chain; on linkers, the order of the positions; unused ones are H or OH. Square brackets hold non-standard residues; d marks the D form. Peptide text beside a SMILES is read from it. * marks the point of attachment. dNle = CCCC[C@@H](N)C(=O)O; Piperidide = C1CCN(*)CC1; Pyrrolidide = C1CCN(*)C1; dAbu = CC[C@@H](N)C(=O)O; Boc = CC(C)(C)OC(=O)*; CO = O=C([*:1])[*:2]; NHtBu = CC(C)(C)N*; Moc = COC(=O)*
# Target: T1, ETB receptor (Sus scrofa, UniProt P35463)
# T1 construct: ETB receptors of porcine cerebellum membrane suspension used in the present experiments; from tissue; host or cells: porcine cerebellum membrane fraction
# T1 sequence (P35463 27-443): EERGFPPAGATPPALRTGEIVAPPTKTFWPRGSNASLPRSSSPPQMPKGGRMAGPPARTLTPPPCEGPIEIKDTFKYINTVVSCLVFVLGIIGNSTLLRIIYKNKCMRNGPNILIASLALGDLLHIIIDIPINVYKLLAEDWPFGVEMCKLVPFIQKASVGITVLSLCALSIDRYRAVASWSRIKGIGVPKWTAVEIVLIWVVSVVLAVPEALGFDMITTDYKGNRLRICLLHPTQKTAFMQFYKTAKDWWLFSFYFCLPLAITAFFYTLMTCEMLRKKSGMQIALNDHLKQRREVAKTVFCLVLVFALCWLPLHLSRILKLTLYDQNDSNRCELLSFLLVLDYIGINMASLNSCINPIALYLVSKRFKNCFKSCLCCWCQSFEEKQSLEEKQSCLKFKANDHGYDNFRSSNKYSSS
# Experiment: Endothelin binding inhibition test (^125I-endothelin-1, porcine cerebellum membrane suspension)
# Settings: 1.1 µM of the test compound, triplicate
# Description: The cerebellum of porcine was homogenized in a buffer solution of 10 mM MOPS, pH 7.4, at 4°C by a polytron. To the homogenate, sucrose was added to a concentration of 20%, and the mixture was centrifuged at 1,000 x g for 15 minutes, and the supernatant was further centrifuged at 10,000 x g for 15 minutes. The supernatant thereof was further centrifuged at 90,000 x g for 40 minutes. The membrane precipitate thereby obtained was suspended in a buffer solution of 5 mM HEPES/Tris, pH 7.4, at a concentration of 3.3 mg/ml.
# Then, 16 µl of this membrane suspension was added to 340 µl of 50 mM tris/HCl buffer, pH 7.4, containing […] calcium chloride, 10 µM magnesium chloride, 0.1 mM PMSF, 1 µM pepstatin A, 2 µM leupeptin, 1 mM 1,10-phenanthroline and 0.1% bovine serum albumin. To this suspension, 4 µl of (A) endothelin-1 (for nonspecific binding; 0.2 µM as the final concentration), (B) buffer solution A (for total control binding), or (C) a test compound (1.1 µM as the final concentration), was added. Further, to each suspension, 40 µl of ^125I-endothelin-1 (12000-18000 cpm) was added. These mixtures were incubated at 25°C for 4 hours, then subjected to filtration on a glass filter GF/C and then washed with 5 mM HEPES/Tris, pH 7.4, containing 0.3% bovine serum albumin. Then, the radioactivity trapped by the glass filter was measured, and the ^125I-endothelin-1 binding inhibition D (%) at 1.1 µM of the test compound was determined by the following equation. D(%) = 100 -((C) - (A))/((B) - (A))× 100 [formula]
# Each test was performed in triplicate.
# The test compounds are indicated by compound Nos.
row,inhibition at 1.1 µM [%],Compound
1,99,CCCC[C@@H](NC(=O)[C@@H](Cc1cn(C(=O)OC)c2ccccc12)NC(=O)[C@H](CC(C)C)NC(=O)Nc1ccccc1Cl)C(=O)O [Compound 1]
2,97,CCCC[C@@H](NC(=O)[C@@H](Cc1cn(C(=O)OCC)c2ccccc12)NC(=O)[C@H](CC(C)C)NC(=O)Nc1ccccc1Cl)C(=O)O [Compound 2]
3,94,CCCC[C@@H](NC(=O)[C@@H](Cc1cn(C(=O)OC)c2ccccc12)NC(=O)[C@H](CC(C)C)NC(=O)Nc1c(Cl)cccc1Cl)C(=O)O [Compound 3]
4,99,CCCC[C@@H](NC(=O)[C@@H](Cc1cn(C(=O)OC)c2ccccc12)NC(=O)[C@H](CC(C)C)NC(=O)N1CCCCCC1)C(=O)O [Compound 9]
5,89,CCCC[C@@H](NC(=O)[C@@H](Cc1cn(C(=O)OC)c2ccccc12)NC(=O)[C@H](CC(C)C)NC(=O)N1CCSCC1)C(=O)O [Compound 10]
6,73,CCCC[C@@H](NC(=O)[C@@H](Cc1cn(C(=O)OC)c2ccccc12)NC(=O)[C@H](CC(C)C)NC(=O)N1CCCC1)C(=O)O [Compound 11] ({Pyrrolidide-CO}-Leu-[dW](Moc)-[dNle]-OH)
7,96,CCCC[C@@H](NC(=O)[C@@H](Cc1cn(C(=O)OC)c2ccccc12)NC(=O)[C@H](CC(C)C)NC(=O)N1CCCCC1)C(=O)O [Compound 12] ({Piperidide-CO}-Leu-[dW](Moc)-[dNle]-OH)
8,72,CCCC[C@@H](NC(=O)[C@@H](Cc1cn(C(=O)OC)c2ccccc12)NC(=O)[C@H](CC(C)C)NC(=O)N1CCSC1)C(=O)O [Compound 13]
9,99,CCCC[C@@H](NC(=O)[C@@H](Cc1cn(C(=O)OC)c2ccccc12)NC(=O)[C@H](CC(C)C)NC(=O)N(C(C)C)C(C)C)C(=O)O [Compound 14]
10,95,CCCC[C@@H](NC(=O)[C@@H](Cc1cn(C(=O)OC)c2ccccc12)NC(=O)[C@H](CC(C)C)NC(=O)N(CCC)C1CCCC1)C(=O)O [Compound 17]
11,97,CCCC[C@@H](NC(=O)[C@@H](Cc1cn(C(=O)OC)c2ccccc12)NC(=O)[C@H](CC(C)C)NC(=O)NC12CC3CC(CC(C3)C1)C2)C(=O)O [Compound 25]
12,71,CC[C@@H](NC(=O)[C@@H](Cc1cn(C(=O)OC)c2ccccc12)NC(=O)[C@H](CC(C)C)NC(=O)OC(C)(C)C)C(=O)O [Compound 26] (Boc-Leu-[dW](Moc)-[dAbu]-OH)
13,91,CCCC[C@@H](NC(=O)[C@@H](Cc1cn(C(=O)OC)c2ccccc12)NC(=O)[C@H](CC(C)C)NC(=O)NC(C)(C)C)C(=O)O [Compound 27] ({NHtBu-CO}-Leu-[dW](Moc)-[dNle]-OH)
14,92,CCCC[C@@H](NC(=O)[C@@H](Cc1cn(C(=O)OC)c2ccccc12)NC(=O)[C@H](CC(C)C)NC(=O)N1CCCCCCC1)C(=O)OC(C)(C)C [Compound 28]
15,99,CCCC[C@@H](NC(=O)[C@@H](Cc1cn(C(=O)OC)c2ccccc12)NC(=O)[C@H](CC(C)C)NC(=O)N1CCCCCCC1)C(=O)O [Compound 29]
16,97,CCCC[C@@H](NC(=O)[C@@H](Cc1c(Cl)[nH]c2ccccc12)NC(=O)[C@H](CC(C)C)NC(=O)N1C(C)CCCC1C)C(=O)O (some centres unmarked) [Compound 67]
17,93,CCCC[C@@H](NC(=O)[C@@H](Cc1c(Cl)[nH]c2ccccc12)NC(=O)[C@H](CC(C)C)NC(=O)N1CCCCCC1)C(=O)O [Compound 68]
